Experimental data taken from patent publication US20230392170A1, “BIG-IN: A VERSATILE PLATFORM FOR LOCUS-SCALE GENOME REWRITING AND VERIFICATION” (New York University, priority 2020, published 2023).
Entries after “also recorded” stand apart in the source; their conditions may differ.

Key:
[1] = tested on: H1 LP-TK hESCs (HSV1-ΔTK); experiment: GCV kill-curve assay, LP-TK clone 581 vs parental cells, live cells by PrestoBlue; details: indicated GCV concentrations for 3 days
Procedure: Bars represent mean+S.D. of technical replicates (n=3). c, H1 LP-TK clone 581 and non-engineered parental H1 hESCs were treated with the indicated concentrations of GCV for 3 days, followed by quantification of live cells using PrestoBlue. Data were normalized to the value of untreated cells.
PrestoBlue (ThermoFisher Scientific A13262) staining was performed according to the manufacturer's protocol.

[2] = tested on: Parental H1 cells; experiment: GCV/TK bystander paracrine test: parental cells in medium or LP-TK conditioned medium with GCV; assay type: cell-based, human; details: 0.1 μM GCV, 7 days, also when preincubated with LP-TK cells (conditioned medium)
Procedure: FIG. 8. Development of an efficient counterselection strategy. a, Lack of paracrine activity in GCV/TK bystander effect. Parental H1 cells were grown for 7 days with regular StemFlex medium with or without 0.1 μM GCV or with a 1:1 mixture of regular medium and conditioned medium harvested from LP-TK cells grown with or without 0.1 μM GCV. […] Bars represent mean+S.D. for technical replicates (n=3). b, PCR genotyping for parental (Par), ΔPIGA and LP-PIGA H1 hESCs. Primers target a region of the PIGA gene (WT PIGA), the novel junction formed following PIGA deletion (ΔPIGA), a region of HPRT1 gene (WT HPRT1) and the two novel junctions formed between LP-PIGA and the surrounding genome (LP L and R Jx). c, Proaerolysin-induced cell death. The indicated H1 hESCs were treated with 0.5 nM proaerolysin for 1 day and stained with Crystal Violet. Proaerolysin resistance is conferred by PIGA inactivation and restored by hmPIGA expression. d, Rapid proaerolysin-induced cell death. e, Proaerolysin kill-curve for H1 hESCs and BL6xCAST mESCs. Cells were treated with proaerolysin for 1 day and assayed 3 days (H1) or 1 day (BL6xCAST) post treatment. Experiment was conducted in replicates (H1, n=4; BL6xCAST, n=2) and data are represented as mean±S.D. f, CD59/HLA flow cytometry of H1 hESCs. […]

[3] = tested on: H1 hESCs; experiment: TK/GCV counterselection in co-cultures of TK-negative and TK-positive (LP-TK) cells, live cells by PrestoBlue; assay type: cell-based, human; details: 1 μM GCV for 4 days
Procedure: FIG. 2. Development of an efficient counterselection strategy. a, Parental (TK−) and LP-TK (TK+) H1 hESCs were co-cultured at the indicated ratios, treated with 1 μM, GCV for 4 days, and assayed for the number of live cells using PrestoBlue. Cell counts are shown relative to unmixed parental cells. Bars show mean+S.D. (n=2). b, GCV enters TK+ cells and is metabolized into the toxic membrane-impermeable compound GCV-TP, which diffuses into neighboring cells and induces bystander cell death in TK-cells. c, Big-IN counterselection strategy using PIGA/Proaerolysin. d, Parental and ΔPIGA H1 hESCs co-cultured at the indicated ratios for three days were treated with 1 nM proaerolysin for 1 day and stained with Crystal Violet 3 days later. e, Parental and ΔPiga BL6xCAST mESCs were co-cultured at the indicated ratios for one day, treated with 1 nM proaerolysin for 1 day, stained with Crystal Violet 5 days later, and colonies were counted. Bars represent mean+S.D. (n=2).
Delivery of large DNA through cassette exchange is an infrequent event, requiring selection to obtain practical efficiency. The HSV1-TK gene is a widely used counterselectable marker that renders cells sensitive to GCV by converting it to the toxic metabolite GCV-triphosphate (GCV-TP), which inhibits DNA synthesis and leads to cell death^38. […]

[4] = tested on: H1 hESCs; experiment: Proaerolysin-induced cell death, Crystal Violet staining / kill-curve; assay type: cell-based, human
Procedure: FIG. 8. Development of an efficient counterselection strategy. a, Lack of paracrine activity in GCV/TK bystander effect. Parental H1 cells were grown for 7 days with regular StemFlex medium with or without 0.1 μM GCV or with a 1:1 mixture of regular medium and conditioned medium harvested from LP-TK cells grown with or without 0.1 μM GCV. […] Bars represent mean+S.D. for technical replicates (n=3). b, PCR genotyping for parental (Par), ΔPIGA and LP-PIGA H1 hESCs. Primers target a region of the PIGA gene (WT PIGA), the novel junction formed following PIGA deletion (ΔPIGA), a region of HPRT1 gene (WT HPRT1) and the two novel junctions formed between LP-PIGA and the surrounding genome (LP L and R Jx). c, Proaerolysin-induced cell death. The indicated H1 hESCs were treated with 0.5 nM proaerolysin for 1 day and stained with Crystal Violet. Proaerolysin resistance is conferred by PIGA inactivation and restored by hmPIGA expression. d, Rapid proaerolysin-induced cell death. e, Proaerolysin kill-curve for H1 hESCs and BL6xCAST mESCs. Cells were treated with proaerolysin for 1 day and assayed 3 days (H1) or 1 day (BL6xCAST) post treatment. Experiment was conducted in replicates (H1, n=4; BL6xCAST, n=2) and data are represented as mean±S.D. f, CD59/HLA flow cytometry of H1 hESCs. Note the complete loss of CD59, a GPI-anchored protein, in ΔPIGA cells, and the retention of HLA, a non-GPI-anchored membranal protein. g, Flow cytometry of H1 hESCs showing the reconstitution of CD59 expression in LP-PIGA cells.
Integration of a landing pad expressing a human mini PIGA gene (hmPIGA) to the HPRT1 locus resensitized H1 ΔPIGA hESCs to proaerolysin and restored CD59 expression (FIG. 7c, FIG. 7g). Importantly, rare ΔPIGA H1 hESCs were efficiently isolated when co-cultured with parental H1 cells by applying proaerolysin selection (FIG. 2d). Similarly, the Piga/proaerolysin counterselection strategy was used to efficiently isolate rare mESCs (FIG. 2e).

## Nc1nc(O)c2ncn(COC(CO)CO)c2n1 [GCV, Ganciclovir]
[1]
  cytotoxicity to LP-TK (HSV1-ΔTK expressing) H1 hESCs: kills LP-TK cells; also recorded: Robust cytotoxic activity
[2]
  effect on parental (TK-negative) H1 cells: no effect
[3]; 1:1 ratio TK-negative:TK-positive
  TK-negative cells that died when mixed with TK-positive cells: More than 80%
[3]; 1:10 ratio TK-negative:TK-positive
  death of TK-negative cells when mixed with TK-positive cells: all died

## proaerolysin: a bacterial prototoxin; perforates the plasma membrane upon binding to GPI anchors on the cell surface
[4]; LP-PIGA H1 hESCs
  sensitivity of H1 ΔPIGA hESCs after landing pad expressing hmPIGA at HPRT1: resensitized
[4]; parental H1 hESCs
  killing of parental H1 hESCs: efficiently killed
[4]; ΔPIGA cells (PIGA deleted using CRISPR/Cas9)
  sensitivity of ΔPIGA H1 hESCs: entirely resistant
